± gives the expanded uncertainty stated by the source.
Experiment: relative permittivity at various frequencies (dimensionless)
Settings: 99 kPa, Liquid, Frequency=2 MHz, Parallel plate capacitor

SMILES	relative permittivity (278.15 K)	relative permittivity (280.65 K)	relative permittivity (283.15 K)	relative permittivity (285.65 K)	relative permittivity (288.15 K)	relative permittivity (290.65 K)	relative permittivity (293.15 K)	relative permittivity (295.65 K)	relative permittivity (298.15 K)	relative permittivity (300.65 K)	relative permittivity (303.15 K)	relative permittivity (305.65 K)	relative permittivity (308.15 K)	relative permittivity (310.65 K)	relative permittivity (313.15 K)	relative permittivity (315.65 K)	relative permittivity (318.15 K)	relative permittivity (320.65 K)	relative permittivity (323.15 K)	relative permittivity (325.65 K)	further results
Cc1ccc(C)o1 [2,5-dimethylfuran]	2.562 ± 0.013	2.553 ± 0.013	2.538 ± 0.013	2.526 ± 0.013	2.516 ± 0.013	2.499 ± 0.013	2.492 ± 0.012	2.472 ± 0.012	2.462 ± 0.012	2.445 ± 0.012	2.434 ± 0.012	2.418 ± 0.012	2.404 ± 0.012	2.391 ± 0.012	2.376 ± 0.012	2.364 ± 0.012	2.349 ± 0.012	2.337 ± 0.012	2.321 ± 0.012	2.31 ± 0.012	relative permittivity (328.15 K): 2.292 ± 0.011; relative permittivity (330.65 K): 2.283 ± 0.011; relative permittivity (333.15 K): 2.272 ± 0.011; relative permittivity (335.65 K): 2.256 ± 0.011; relative permittivity (338.15 K): 2.245 ± 0.011
c1ccoc1 [furan]	3.124 ± 0.016	3.094 ± 0.015	3.068 ± 0.015	3.036 ± 0.015	3.009 ± 0.015	2.988 ± 0.015	2.958 ± 0.015	2.934 ± 0.015	2.913 ± 0.015	2.892 ± 0.014	2.865 ± 0.014	–	–	–	–	–	–	–	–	–	–
Cc1ccco1 [2-methylfuran]	2.976 ± 0.015	2.967 ± 0.015	2.944 ± 0.015	2.933 ± 0.015	2.911 ± 0.015	2.893 ± 0.014	2.874 ± 0.014	2.854 ± 0.014	2.84 ± 0.014	2.814 ± 0.014	2.8 ± 0.014	2.775 ± 0.014	2.76 ± 0.014	2.735 ± 0.014	2.72 ± 0.014	2.696 ± 0.013	2.678 ± 0.013	2.656 ± 0.013	2.636 ± 0.013	2.617 ± 0.013	relative permittivity (328.15 K): 2.596 ± 0.013; relative permittivity (330.65 K): 2.577 ± 0.013; relative permittivity (333.15 K): 2.556 ± 0.013; relative permittivity (335.65 K): 2.538 ± 0.013; relative permittivity (338.15 K): 2.518 ± 0.013
